Data set [1] has as its system hspb12. Briefly: Microarray gene expression in zebrafish embryos exposed to compound, hspb12. The note with it: 24 hpf; embryos exposed at BMCGMS20 (PAA equimolar to MAA and EAA); relative to DMSO-exposed control; negative = downregulation, positive = upregulation.
Data set [2] relates to vmhc. Briefly: Microarray gene expression in zebrafish embryos exposed to compound, vmhc. The note with it: 24 hpf; embryos exposed at BMCGMS20 (PAA equimolar to MAA and EAA); relative to DMSO-exposed control; negative = downregulation, positive = upregulation.
The test system of data set [3] is si:rp71-39b20.7. As to the kind of experiment: Microarray gene expression in zebrafish embryos exposed to compound, si:rp71-39b20.7. The note with it: 24 hpf; embryos exposed at BMCGMS20 (PAA equimolar to MAA and EAA); relative to DMSO-exposed control; negative = downregulation, positive = upregulation.
In data set [4] the test system is zebrafish embryos. Briefly: Method of the invention: developmental toxicity from expression of the 4 genes in exposed zebrafish embryos. The note with it: for fold ratio (FR) (either up- or downregulated): all 4 genes (cyp26a1, si:rp71-39b20.7, vmhc, hspb12), 24 hpf microarray, compound versus DMSO control.
Data set [5] relates to cyp26a1. Briefly: Microarray gene expression in zebrafish embryos exposed to compound, cyp26a1. The note with it: 24 hpf; embryos exposed at BMCGMS20 (PAA equimolar to MAA and EAA); relative to DMSO-exposed control; negative = downregulation, positive = upregulation.
Data set [6] concerns vmhc. The note with it: zebrafish (Danio rerio), in vivo, 24 hpf.
The test system of data set [7] is cyp26a1. The note with it: zebrafish (Danio rerio), in vivo, 24 hpf.
In data set [8] the test system is hspb12. The note with it: zebrafish (Danio rerio), in vivo, 24 hpf.
For data set [9], the system named is zebrafish embryos. The note with it: zebrafish (Danio rerio), in vivo, 24 hpf.
For data set [10], the system named is si:rp71-39b20.7. The note with it: zebrafish (Danio rerio), in vivo, 24 hpf.
Data set [11] deals with zebrafish embryos. The note with it: concentration range, three independent runs, evaluated at 72 hpf; previous study [11]; cited from earlier work.

Like-named read-outs stand apart in the source and are kept apart here.

Take `CC(C1CC1)C(O)(Cn1cncn1)c1ccc(Cl)cc1` (stereo not drawn) [CYP, cyproconazole]: the “Fold ratio (FR) hspb12” value in the data set on hspb12 [1] is on record as -1.531. The “Fold ratio (FR) vmhc” value in the data set on vmhc [2] was -1.759. Moreover, the “Fold ratio (FR) si:rp71-39b20.7” value in the data set on si:rp71-39b20.7 [3] was -1.544. In addition, in the data set on zebrafish embryos [4], the “fold ratio (FR) (either up- or downregulated)” value is given as more than 1.5. Also, the “Fold ratio (FR) cyp26a1” value with cyp26a1 [5] was 3.745.

Consider `CCOCC(=O)O` [EAA, ethoxyacetic acid], for which the “Fold ratio (FR) hspb12” value in the data set with hspb12 [1] was -16.913. For the same compound, in the data set on vmhc [2], the “Fold ratio (FR) vmhc” value is reported as -4.629. In addition, in the data set on si:rp71-39b20.7 [3], the “Fold ratio (FR) si:rp71-39b20.7” value is recorded as -2.183. For the same compound, in the data set on zebrafish embryos [4], the “fold ratio (FR) (either up- or downregulated)” value is recorded as more than 1.5. Besides, the “Fold ratio (FR) cyp26a1” value in the data set with cyp26a1 [5] was 2.648.

Regarding `C[Si](Cn1cncn1)(c1ccc(F)cc1)c1ccc(F)cc1` [FLU, flusilazole], the “Fold ratio (FR) hspb12” value in the data set with hspb12 [1] is -2.182. In the data set on vmhc [2], the “Fold ratio (FR) vmhc” value is -1.784. In the data set on si:rp71-39b20.7 [3], the “Fold ratio (FR) si:rp71-39b20.7” value is recorded as -1.514. In the data set with zebrafish embryos [4], the “fold ratio (FR) (either up- or downregulated)” value is given as more than 1.5. In addition, in the data set on cyp26a1 [5], the “Fold ratio (FR) cyp26a1” value was found to be 3.452.

For the compound `COCC(=O)O` [MAA, methoxyacetic acid], in the data set with vmhc [6], the “Fold ratio (FR) vmhc” value is reported as -2.946. The “Fold ratio (FR) cyp26a1” value in the data set with cyp26a1 [7] stood at 1.722. Also, in the data set with hspb12 [8], the “Fold ratio (FR) hspb12” value is -3.449. Further, the “fold ratio (FR) (either up- or downregulated)” value in the data set on zebrafish embryos [9] was more than 1.5. The “Fold ratio (FR) si:rp71-39b20.7” value with si:rp71-39b20.7 [10] is -1.996.

On to `O=C(O)COc1ccccc1` [PAA, phenoxyacetic acid], for which the “Fold ratio (FR) hspb12” value in the data set on hspb12 [1] is given as -1.135. Also, in the data set on vmhc [2], the “Fold ratio (FR) vmhc” value is reported as -1.102. Moreover, the “Fold ratio (FR) si:rp71-39b20.7” value in the data set with si:rp71-39b20.7 [3] is recorded as -1.098. Further, the “effects in the ZET (GMS)” value with zebrafish embryos [11] is given as “no effects”. The “fold ratio (FR) (either up- or downregulated)” value with zebrafish embryos [4] is given as less than 1.2. Further, the “developmental toxicity classification in the method according to the invention” value in the data set with zebrafish embryos [4] (gene expression in zebrafish embryos, 24 hours after fertilization) is recorded as “non-developmentally toxic”. Also, the “Fold ratio (FR) cyp26a1” value in the data set on cyp26a1 [5] is on record as -1.009.
